Experimental data published in the supplement of paper PMC8882468.
± gives the standard deviation of the averaged measurements.

These molecules were tested on HCI-023 (organoid from a triple-negative breast cancer xenograft) (assay: CTG-3D luminescence at 96 h relative to day-0 seeding control (ratio to day 0); higher = more growth / less cytotoxicity; PDxO 3D drug screen, 96 h, CTG-3D normalised to day-0 seeding control.). Details: 0.1 µM; days in culture: 128.

SMILES	CTG-3D luminescence at 96 h
C[C@@H]1COCCN1c1cc(C2([S@](C)(=N)=O)CC2)nc(-c2cc[nH]c3nccc2-3)n1 [ceralasertib]	1.51 ± 0.065
CCN1CCN(Cc2ccc(Nc3ncc(F)c(-c4cc(F)c5nc(C)n(C(C)C)c5c4)n3)nc2)CC1 [abemaciclib]	1.52 ± 0.47
NC1(C(=O)N[C@@H](CCO)c2ccc(Cl)cc2)CCN(c2nc[nH]c3nccc2-3)CC1 [capivasertib]	1.22 ± 0.094
CC(C)n1nc(-c2ccc3oc(N)nc3c2)c2c(N)ncnc21 [sapanisertib]	0.727 ± 0.098
O=C(c1ccc(F)c(F)c1Nc1ccc(I)cc1F)N1CC(O)([C@@H]2CCCCN2)C1 [cobimetinib]	1.63 ± 0.14
C[C@H](NC(=O)CCC(F)(F)F)C(=O)N[C@@H]1C(=O)N(CCO)c2ncccc2-c2ccccc21 [crenigacestat]	1.51 ± 0.061
Cc1cc(Nc2ncc(Cl)c(Nc3ccccc3S(=O)(=O)C(C)C)n2)c(OC(C)C)cc1C1CCNCC1 [ceritinib]	1.65 ± 0.042
CS(=O)(=O)c1ccc(C(=O)Nc2ccc(Cl)c(-c3ccccn3)c2)c(Cl)c1 [vismodegib]	1.46 ± 0.69
NC(=O)c1cccc2cn(-c3ccc([C@@H]4CCCNC4)cc3)nc12 [niraparib]	1.42 ± 0.034

Same assay, conditions: 1 µM; days in culture: 111

SMILES	CTG-3D luminescence at 96 h
C[C@@H]1COCCN1c1cc(C2([S@](C)(=N)=O)CC2)nc(-c2cc[nH]c3nccc2-3)n1 [ceralasertib]	0.756
CCN1CCN(Cc2ccc(Nc3ncc(F)c(-c4cc(F)c5nc(C)n(C(C)C)c5c4)n3)nc2)CC1 [abemaciclib]	0.658
NC1(C(=O)N[C@@H](CCO)c2ccc(Cl)cc2)CCN(c2nc[nH]c3nccc2-3)CC1 [capivasertib]	0.434
CC(C)n1nc(-c2ccc3oc(N)nc3c2)c2c(N)ncnc21 [sapanisertib]	0.401
O=C(c1ccc(F)c(F)c1Nc1ccc(I)cc1F)N1CC(O)([C@@H]2CCCCN2)C1 [cobimetinib]	0.75
C[C@H](NC(=O)CCC(F)(F)F)C(=O)N[C@@H]1C(=O)N(CCO)c2ncccc2-c2ccccc21 [crenigacestat]	0.7
Cc1cc(Nc2ncc(Cl)c(Nc3ccccc3S(=O)(=O)C(C)C)n2)c(OC(C)C)cc1C1CCNCC1 [ceritinib]	0.844
CS(=O)(=O)c1ccc(C(=O)Nc2ccc(Cl)c(-c3ccccn3)c2)c(Cl)c1 [vismodegib]	1.15
NC(=O)c1cccc2cn(-c3ccc([C@@H]4CCCNC4)cc3)nc12 [niraparib]	0.886

Same assay, conditions: 1 µM; days in culture: 128

SMILES	CTG-3D luminescence at 96 h
C[C@@H]1COCCN1c1cc(C2([S@](C)(=N)=O)CC2)nc(-c2cc[nH]c3nccc2-3)n1 [ceralasertib]	0.689 ± 0.093
CCN1CCN(Cc2ccc(Nc3ncc(F)c(-c4cc(F)c5nc(C)n(C(C)C)c5c4)n3)nc2)CC1 [abemaciclib]	0.984 ± 0.17
NC1(C(=O)N[C@@H](CCO)c2ccc(Cl)cc2)CCN(c2nc[nH]c3nccc2-3)CC1 [capivasertib]	0.571 ± 0.062
CC(C)n1nc(-c2ccc3oc(N)nc3c2)c2c(N)ncnc21 [sapanisertib]	0.428 ± 0.005
O=C(c1ccc(F)c(F)c1Nc1ccc(I)cc1F)N1CC(O)([C@@H]2CCCCN2)C1 [cobimetinib]	0.769 ± 0.079
C[C@H](NC(=O)CCC(F)(F)F)C(=O)N[C@@H]1C(=O)N(CCO)c2ncccc2-c2ccccc21 [crenigacestat]	1.05 ± 0.19
Cc1cc(Nc2ncc(Cl)c(Nc3ccccc3S(=O)(=O)C(C)C)n2)c(OC(C)C)cc1C1CCNCC1 [ceritinib]	0.92736 ± 0.00061
CS(=O)(=O)c1ccc(C(=O)Nc2ccc(Cl)c(-c3ccccn3)c2)c(Cl)c1 [vismodegib]	1.31 ± 0.19
NC(=O)c1cccc2cn(-c3ccc([C@@H]4CCCNC4)cc3)nc12 [niraparib]	0.892 ± 0.062

Same assay, conditions: 10 µM; days in culture: 111

SMILES	CTG-3D luminescence at 96 h
C[C@@H]1COCCN1c1cc(C2([S@](C)(=N)=O)CC2)nc(-c2cc[nH]c3nccc2-3)n1 [ceralasertib]	0.365
CCN1CCN(Cc2ccc(Nc3ncc(F)c(-c4cc(F)c5nc(C)n(C(C)C)c5c4)n3)nc2)CC1 [abemaciclib]	0.377
NC1(C(=O)N[C@@H](CCO)c2ccc(Cl)cc2)CCN(c2nc[nH]c3nccc2-3)CC1 [capivasertib]	0.366
CC(C)n1nc(-c2ccc3oc(N)nc3c2)c2c(N)ncnc21 [sapanisertib]	0.462
O=C(c1ccc(F)c(F)c1Nc1ccc(I)cc1F)N1CC(O)([C@@H]2CCCCN2)C1 [cobimetinib]	0.349
C[C@H](NC(=O)CCC(F)(F)F)C(=O)N[C@@H]1C(=O)N(CCO)c2ncccc2-c2ccccc21 [crenigacestat]	1.28
Cc1cc(Nc2ncc(Cl)c(Nc3ccccc3S(=O)(=O)C(C)C)n2)c(OC(C)C)cc1C1CCNCC1 [ceritinib]	0.00455
CS(=O)(=O)c1ccc(C(=O)Nc2ccc(Cl)c(-c3ccccn3)c2)c(Cl)c1 [vismodegib]	1.34
NC(=O)c1cccc2cn(-c3ccc([C@@H]4CCCNC4)cc3)nc12 [niraparib]	0.393

Same assay, conditions: 10 µM; days in culture: 128

SMILES	CTG-3D luminescence at 96 h
C[C@@H]1COCCN1c1cc(C2([S@](C)(=N)=O)CC2)nc(-c2cc[nH]c3nccc2-3)n1 [ceralasertib]	0.634 ± 0.061
CCN1CCN(Cc2ccc(Nc3ncc(F)c(-c4cc(F)c5nc(C)n(C(C)C)c5c4)n3)nc2)CC1 [abemaciclib]	1.15 ± 0.29
NC1(C(=O)N[C@@H](CCO)c2ccc(Cl)cc2)CCN(c2nc[nH]c3nccc2-3)CC1 [capivasertib]	0.658 ± 0.14
CC(C)n1nc(-c2ccc3oc(N)nc3c2)c2c(N)ncnc21 [sapanisertib]	0.484 ± 0.068
O=C(c1ccc(F)c(F)c1Nc1ccc(I)cc1F)N1CC(O)([C@@H]2CCCCN2)C1 [cobimetinib]	0.338 ± 0.099
C[C@H](NC(=O)CCC(F)(F)F)C(=O)N[C@@H]1C(=O)N(CCO)c2ncccc2-c2ccccc21 [crenigacestat]	1.52 ± 0.16
Cc1cc(Nc2ncc(Cl)c(Nc3ccccc3S(=O)(=O)C(C)C)n2)c(OC(C)C)cc1C1CCNCC1 [ceritinib]	0.00417 ± 0.0011
CS(=O)(=O)c1ccc(C(=O)Nc2ccc(Cl)c(-c3ccccn3)c2)c(Cl)c1 [vismodegib]	1.86 ± 0.42
NC(=O)c1cccc2cn(-c3ccc([C@@H]4CCCNC4)cc3)nc12 [niraparib]	0.695 ± 0.034

Same assay, conditions: 100 µM; days in culture: 111

SMILES	CTG-3D luminescence at 96 h
C[C@@H]1COCCN1c1cc(C2([S@](C)(=N)=O)CC2)nc(-c2cc[nH]c3nccc2-3)n1 [ceralasertib]	0.252
CCN1CCN(Cc2ccc(Nc3ncc(F)c(-c4cc(F)c5nc(C)n(C(C)C)c5c4)n3)nc2)CC1 [abemaciclib]	0.00981
NC1(C(=O)N[C@@H](CCO)c2ccc(Cl)cc2)CCN(c2nc[nH]c3nccc2-3)CC1 [capivasertib]	0.16
CC(C)n1nc(-c2ccc3oc(N)nc3c2)c2c(N)ncnc21 [sapanisertib]	0.0354
O=C(c1ccc(F)c(F)c1Nc1ccc(I)cc1F)N1CC(O)([C@@H]2CCCCN2)C1 [cobimetinib]	-0.00131
C[C@H](NC(=O)CCC(F)(F)F)C(=O)N[C@@H]1C(=O)N(CCO)c2ncccc2-c2ccccc21 [crenigacestat]	0.926
Cc1cc(Nc2ncc(Cl)c(Nc3ccccc3S(=O)(=O)C(C)C)n2)c(OC(C)C)cc1C1CCNCC1 [ceritinib]	-0.00268
CS(=O)(=O)c1ccc(C(=O)Nc2ccc(Cl)c(-c3ccccn3)c2)c(Cl)c1 [vismodegib]	0.248
NC(=O)c1cccc2cn(-c3ccc([C@@H]4CCCNC4)cc3)nc12 [niraparib]	-0.00664

Same assay, conditions: 100 µM; days in culture: 128

SMILES	CTG-3D luminescence at 96 h
C[C@@H]1COCCN1c1cc(C2([S@](C)(=N)=O)CC2)nc(-c2cc[nH]c3nccc2-3)n1 [ceralasertib]	0.38 ± 0.18
CCN1CCN(Cc2ccc(Nc3ncc(F)c(-c4cc(F)c5nc(C)n(C(C)C)c5c4)n3)nc2)CC1 [abemaciclib]	0.0139 ± 0.0041
NC1(C(=O)N[C@@H](CCO)c2ccc(Cl)cc2)CCN(c2nc[nH]c3nccc2-3)CC1 [capivasertib]	0.277 ± 0.0088
CC(C)n1nc(-c2ccc3oc(N)nc3c2)c2c(N)ncnc21 [sapanisertib]	0.0623 ± 0.015
O=C(c1ccc(F)c(F)c1Nc1ccc(I)cc1F)N1CC(O)([C@@H]2CCCCN2)C1 [cobimetinib]	-0.000598 ± 0.00044
C[C@H](NC(=O)CCC(F)(F)F)C(=O)N[C@@H]1C(=O)N(CCO)c2ncccc2-c2ccccc21 [crenigacestat]	1.13 ± 0.32
Cc1cc(Nc2ncc(Cl)c(Nc3ccccc3S(=O)(=O)C(C)C)n2)c(OC(C)C)cc1C1CCNCC1 [ceritinib]	-0.00332 ± 0.00062
CS(=O)(=O)c1ccc(C(=O)Nc2ccc(Cl)c(-c3ccccn3)c2)c(Cl)c1 [vismodegib]	0.552 ± 0.047
NC(=O)c1cccc2cn(-c3ccc([C@@H]4CCCNC4)cc3)nc12 [niraparib]	0.00157 ± 0.00012

Same assay, conditions: 625 fM; days in culture: 111

SMILES	CTG-3D luminescence at 96 h
C[C@@H]1COCCN1c1cc(C2([S@](C)(=N)=O)CC2)nc(-c2cc[nH]c3nccc2-3)n1 [ceralasertib]	1.5
CCN1CCN(Cc2ccc(Nc3ncc(F)c(-c4cc(F)c5nc(C)n(C(C)C)c5c4)n3)nc2)CC1 [abemaciclib]	1.51
NC1(C(=O)N[C@@H](CCO)c2ccc(Cl)cc2)CCN(c2nc[nH]c3nccc2-3)CC1 [capivasertib]	1.39
CC(C)n1nc(-c2ccc3oc(N)nc3c2)c2c(N)ncnc21 [sapanisertib]	1.44
O=C(c1ccc(F)c(F)c1Nc1ccc(I)cc1F)N1CC(O)([C@@H]2CCCCN2)C1 [cobimetinib]	1.06
C[C@H](NC(=O)CCC(F)(F)F)C(=O)N[C@@H]1C(=O)N(CCO)c2ncccc2-c2ccccc21 [crenigacestat]	1.3
Cc1cc(Nc2ncc(Cl)c(Nc3ccccc3S(=O)(=O)C(C)C)n2)c(OC(C)C)cc1C1CCNCC1 [ceritinib]	1.19
CS(=O)(=O)c1ccc(C(=O)Nc2ccc(Cl)c(-c3ccccn3)c2)c(Cl)c1 [vismodegib]	1.6
NC(=O)c1cccc2cn(-c3ccc([C@@H]4CCCNC4)cc3)nc12 [niraparib]	1.85

Same assay, conditions: 625 fM; days in culture: 128

SMILES	CTG-3D luminescence at 96 h
C[C@@H]1COCCN1c1cc(C2([S@](C)(=N)=O)CC2)nc(-c2cc[nH]c3nccc2-3)n1 [ceralasertib]	1.35 ± 0.12
CCN1CCN(Cc2ccc(Nc3ncc(F)c(-c4cc(F)c5nc(C)n(C(C)C)c5c4)n3)nc2)CC1 [abemaciclib]	1.84 ± 0.45
NC1(C(=O)N[C@@H](CCO)c2ccc(Cl)cc2)CCN(c2nc[nH]c3nccc2-3)CC1 [capivasertib]	1.75 ± 0.15
CC(C)n1nc(-c2ccc3oc(N)nc3c2)c2c(N)ncnc21 [sapanisertib]	1.75 ± 0.43
